# Marks after values point to notes of the source that are not given here.
# What was measured:
# Type in all cases: biochemical
# OXA-48 Enzyme = OXA-48 Enzyme (Klebsiella pneumoniae, UniProt Q6XEC0); test: Imipenem hydrolysis monitored by UV absorbance slope, OXA-48 enzyme; details: for inhibition at 10 µM: read-out: OXA-48 Enzyme Inhibition at 10 μM; for OXA-48 Enzyme Inhibition at 10 μM: 10 μM compound
# Protocol: (§1) These tests are conducted by comparing UV absorbance slope measurements of impenem alone, and then imipenem with the concerned 3-imidazolines at given concentrations in the presence of the enzyme. It was thus possible to monitor the hydrolysis of imipenem. Lower the value of the slope, the higher is the percentage of inhibition of the enzyme.
# NDM-1 Enzyme = NDM-1 Enzyme (Klebsiella pneumoniae, UniProt C7C422); test: Imipenem hydrolysis monitored by UV absorbance slope, NDM-1 enzyme; details: 10 μM compound, starred cells in the IC50 column
# Chain of NDM-1 Enzyme (C7C422 29-270, looked up, species assumed): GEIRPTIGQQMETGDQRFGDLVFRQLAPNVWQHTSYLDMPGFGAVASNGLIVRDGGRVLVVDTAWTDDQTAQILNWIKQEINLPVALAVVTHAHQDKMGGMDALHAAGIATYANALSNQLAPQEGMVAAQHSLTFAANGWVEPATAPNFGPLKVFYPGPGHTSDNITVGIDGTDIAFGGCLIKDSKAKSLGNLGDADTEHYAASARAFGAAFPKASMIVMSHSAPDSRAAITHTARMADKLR
# Protocol: as §1
# KPC Enzyme = KPC Enzyme (Klebsiella pneumoniae, UniProt Q9F663); test: Imipenem hydrolysis monitored by UV absorbance slope, KPC enzyme; details: for KPC Enzyme percentage of inhibition at 10 μM: 10 μM compound, starred cells in the IC50 column, ND = Not Detectable (at 10 μM); for inhibition at 10 µM: read-out: KPC Enzyme percentage of inhibition at 10 μM
# Chain of KPC Enzyme (Q9F663 25-293, looked up): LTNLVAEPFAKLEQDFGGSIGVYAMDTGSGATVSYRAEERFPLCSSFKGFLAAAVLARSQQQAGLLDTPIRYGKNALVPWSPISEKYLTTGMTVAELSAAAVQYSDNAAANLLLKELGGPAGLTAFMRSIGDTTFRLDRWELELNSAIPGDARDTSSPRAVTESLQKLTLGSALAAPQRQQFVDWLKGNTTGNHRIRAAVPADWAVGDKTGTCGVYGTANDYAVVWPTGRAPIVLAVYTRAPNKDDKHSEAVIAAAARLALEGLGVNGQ
# Protocol: as §1
# Chain of OXA-48 Enzyme (Q6XEC0 23-265 limits assumed): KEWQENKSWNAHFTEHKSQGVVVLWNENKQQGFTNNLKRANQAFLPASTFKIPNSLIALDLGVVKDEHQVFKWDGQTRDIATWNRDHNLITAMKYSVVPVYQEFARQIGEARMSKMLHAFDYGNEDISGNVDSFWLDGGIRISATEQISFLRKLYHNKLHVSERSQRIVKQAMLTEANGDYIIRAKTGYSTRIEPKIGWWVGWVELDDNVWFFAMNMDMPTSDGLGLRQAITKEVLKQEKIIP
SMILES,inhibition at 10 µM (OXA-48 Enzyme),OXA-48 Enzyme Inhibition at 10 μM (OXA-48 Enzyme),further results
COc1ccc(C2N=C(c3ccccc3)C(C)N2c2ccccc2)cc1 (centres unmarked) [Compound 1],9%,–,–
COc1ccc(C2N=C(c3ccccc3)C(C)N2c2ccc(I)cc2)cc1 (centres unmarked) [Compound 2],9%,–,–
COc1ccc(C2N=C(c3ccccc3)C(C)N2c2ccc(OC)cc2)cc1 (centres unmarked) [Compound 3],11%,–,–
COc1ccc(C2N=C(c3ccccc3)C(C)N2c2ccc(Cl)cc2)cc1 (centres unmarked) [Compound 4],–,Not Detectable,–
COc1ccc(C2N=C(c3ccccc3)C(C)N2c2ccc(C(F)(F)F)cc2)cc1 (centres unmarked) [Compound 5],19%,–,–
COc1ccc(C2=NC(c3ccc(OC)cc3)N(c3ccc(OC)cc3)C2C)cc1 (centres unmarked) [Compound 7],–,Not Detectable,KPC Enzyme percentage of inhibition at 10 μM (KPC Enzyme): 18%*
COc1ccc(C2=NC(c3ccc(OC)cc3)N(c3ccccc3)C2C)cc1 (centres unmarked) [Compound 9],–,Not Detectable,inhibition at 10 µM (KPC Enzyme): 40%
COc1ccc(N2C(C)C(c3ccc(Cl)cc3)=NC2c2ccc(Cl)cc2)cc1 (centres unmarked) [Compound 12],–,Not Detectable,inhibition at 10 µM (KPC Enzyme): 50%
CC1C(c2ccccc2)=NC(c2ccccc2)N1c1ccccc1 (centres unmarked) [Compound 13],–,Not Detectable,KPC Enzyme percentage of inhibition at 10 μM (KPC Enzyme): 23%*
CC1C(c2ccccc2)=NC(c2ccccc2)N1c1ccc(Br)cc1 (centres unmarked) [Compound 15],–,Not Detectable,–
COc1ccc(N2C(C)C(c3ccccc3)=NC2c2ccccc2)cc1 (centres unmarked) [Compound 17],–,Not Detectable,KPC Enzyme percentage of inhibition at 10 μM (KPC Enzyme): 17%*
CC1C(c2ccc(Cl)cc2)=NC(c2ccc(Cl)cc2)N1c1ccccc1 (centres unmarked) [Compound 18],–,Not Detectable,KPC Enzyme percentage of inhibition at 10 μM (KPC Enzyme): 14%*
CC1C(c2ccc(Cl)cc2)=NC(c2ccc(Cl)cc2)N1c1ccc(Cl)cc1 (centres unmarked) [Compound 19],–,50%,–
C/C(=N\c1ccccc1)C1(c2ccc(Cl)cc2)N=C(c2ccc(Cl)cc2)N(c2ccccc2)C1C (centres unmarked) [Compound 24],38%,–,–
C/C(=N\c1ccc(Cl)cc1)C1(c2ccc(Cl)cc2)N=C(c2ccc(Cl)cc2)N(c2ccc(Cl)cc2)C1C (centres unmarked) [Compound 28],31%,–,–
C/C(=N\c1ccc(Br)cc1)C1(c2ccc(Cl)cc2)N=C(c2ccc(Cl)cc2)N(c2ccc(Br)cc2)C1C (centres unmarked) [Compound 29],36%,–,–

# Now from value to compound, other results behind:
inhibition at 10 µM (OXA-48 Enzyme),OXA-48 Enzyme Inhibition at 10 μM (OXA-48 Enzyme),SMILES,further results
–,Not Detectable,COc1ccc(C2N=C(c3ccccc3)C(C)N2c2ccc(Br)cc2)cc1 (centres unmarked) [Compound 6],inhibition at 10 µM (NDM-1 Enzyme; read-out: NDM-1 Enzyme percentage of inhibition at 10 μM): 20%
–,Not Detectable,COc1ccc(C2=NC(c3ccccc3)N(c3ccccc3)C2C)cc1 (centres unmarked) [Compound 8],KPC Enzyme percentage of inhibition at 10 μM (KPC Enzyme): 23%*
–,Not Detectable,COc1ccc(C2=NC(c3ccccc3)N(c3ccc(OC)cc3)C2C)cc1 (centres unmarked) [Compound 11],NDM-1 Enzyme percentage of inhibition at 10 μM (NDM-1 Enzyme): 20%*
–,Not Detectable,CC1C(c2ccccc2)=NC(c2ccccc2)N1c1ccc(I)cc1 (centres unmarked) [Compound 14],–
–,Not Detectable,CC1C(c2ccccc2)=NC(c2ccccc2)N1c1ccc(Cl)cc1 (centres unmarked) [Compound 16],KPC Enzyme percentage of inhibition at 10 μM (KPC Enzyme): 18%*
–,Not Detectable,C/C(=N\c1ccccc1)C1(c2ccccc2)N=C(c2ccccc2)N(c2ccccc2)C1C (centres unmarked) [Compound 25],inhibition at 10 µM (KPC Enzyme): 30%
22%,–,C/C(=N\c1ccc(Cl)cc1)C1(c2ccccc2)N=C(c2ccccc2)N(c2ccc(Cl)cc2)C1C (centres unmarked) [Compound 26],–
38%,–,C/C(=N\c1ccc(Br)cc1)C1(c2ccccc2)N=C(c2ccccc2)N(c2ccc(Br)cc2)C1C (centres unmarked) [Compound 27],–

# — patent publication US11285133B2, “2- or 3-imidazolines as carbapenemases inhibitors” (priority 2017, dated 2022)
